Among the data in patent US20250313563A1, “GLYCOGEN SYNTHASE KINASE 3 INHIBITORS AND USES THEREOF” (The Broad Institute, Inc., priority 2022, published 2025) are IC50 values, retold here.

The target in test [1] is GSK3b (GST-full length GSK3b) (Homo sapiens (Human), UniProt P49841). Nature of the test: GSK3b TR-FRET kinase assay. The format is biochemical. A digest of the protocol:
(§1)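 Compound preincubated 30 min, then 1 nM GST-full-length GSK3α or GSK3b run 100 min at ambient temperature with 200 nM biotinylated, S645-prephosphorylated glycogen synthase 631-650 peptide in Tris pH 7.5, MgCl2, DTT, BSA, 1% DMSO. ATP 4 μM (α) or 2 μM (β), or 1 mM. EDTA-quenched; Tb-anti-pSer641/streptavidin-d2 TR-FRET 665/615 ratio gave IC50.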
For orientation: In TR-FRET formats the signal depends on donor and acceptor labels being close together.

The target in test [2] is GSK3α (GST-full length GSK3α) (Homo sapiens (Human), UniProt P49840). In words: GSK3α TR-FRET kinase assay. The format is biochemical. A digest of the protocol:
as §1

Setting [3] is: 1 nM GSK3b, 2 μM ATP, 30 minute preincubation, Table 16, read-out: GSK3-B TR-FRET BIOCHEMICAL (TR-FRET), IC50.
Where [4] appears, read: 1 nM GSK3α, 4 μM ATP, 30 minute preincubation, Table 16, read-out: GSK3-A TR-FRET BIOCHEMICAL (TR-FRET), IC50.
Setting [5] is: 1 nM GSK3b, 2 μM ATP, 30 minute preincubation, geometric mean, read-out: GSK3-B TR-FRET BIOCHEMICAL (TR-FRET), GMean, IC50.
Where [6] appears, read: 1 nM GSK3α, 4 μM ATP, 30 minute preincubation, geometric mean, read-out: GSK3-A TR-FRET BIOCHEMICAL (TR-FRET), GMean, IC50.
The mark [7] stands for this setting: read-out: GSK3-B (TR-FRET 1 mM ATP), GMean, IC50, 1 mM ATP, geometric mean.
Setting [8] is: read-out: GSK3-A (TR-FRET 1 mM ATP), GMean, IC50, 1 mM ATP, geometric mean.
Where [9] appears, read: 1 nM GSK3b, 2 μM ATP, 30 minute preincubation, Table 16, read-out: GSK3-B TR-FRET BIOCHEMICAL (TR-FRET).
Setting [10] is: 1 nM GSK3α, 4 μM ATP, 30 minute preincubation, Table 16, read-out: GSK3-A TR-FRET BIOCHEMICAL (TR-FRET).
Where [11] appears, read: 1 nM GSK3b, 2 μM ATP, 30 minute preincubation, read-out: GSK3-B TR-FRET BIOCHEMICAL (TR-FRET), IC50.
The mark [12] stands for this setting: 1 nM GSK3α, 4 μM ATP, 30 minute preincubation, read-out: GSK3-A TR-FRET BIOCHEMICAL (TR-FRET), IC50.

Where two headings read alike, the source gives them in different places.

Chain of GSK3b (GST-full length GSK3b) (P49841 whole entry): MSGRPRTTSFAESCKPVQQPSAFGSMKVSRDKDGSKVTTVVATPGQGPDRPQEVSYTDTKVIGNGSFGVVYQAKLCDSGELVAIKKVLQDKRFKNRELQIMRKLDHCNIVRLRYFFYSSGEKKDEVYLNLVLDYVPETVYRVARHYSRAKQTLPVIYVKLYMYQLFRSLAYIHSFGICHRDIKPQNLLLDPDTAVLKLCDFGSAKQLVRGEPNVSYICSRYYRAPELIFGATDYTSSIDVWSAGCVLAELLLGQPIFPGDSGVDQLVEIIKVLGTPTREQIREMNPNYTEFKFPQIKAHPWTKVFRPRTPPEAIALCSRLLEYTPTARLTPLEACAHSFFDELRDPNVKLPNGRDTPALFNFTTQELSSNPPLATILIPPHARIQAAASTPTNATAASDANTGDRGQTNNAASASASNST
Chain of GSK3α (GST-full length GSK3α) (P49840 whole entry): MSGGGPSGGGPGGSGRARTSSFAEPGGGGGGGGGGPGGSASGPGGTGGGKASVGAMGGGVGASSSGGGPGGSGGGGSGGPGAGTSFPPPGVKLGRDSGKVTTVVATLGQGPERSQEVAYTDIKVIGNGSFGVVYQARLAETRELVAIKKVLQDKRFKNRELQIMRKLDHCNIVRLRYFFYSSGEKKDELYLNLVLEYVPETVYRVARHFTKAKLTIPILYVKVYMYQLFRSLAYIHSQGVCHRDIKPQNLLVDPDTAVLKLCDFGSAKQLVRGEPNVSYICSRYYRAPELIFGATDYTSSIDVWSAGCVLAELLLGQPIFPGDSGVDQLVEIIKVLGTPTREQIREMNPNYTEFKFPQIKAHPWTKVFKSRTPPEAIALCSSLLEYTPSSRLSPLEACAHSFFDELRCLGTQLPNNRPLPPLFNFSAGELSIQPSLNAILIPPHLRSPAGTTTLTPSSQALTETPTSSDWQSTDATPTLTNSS

As for `CCC1(c2cccc(-c3cn[nH]c3)c2)C2=C(CC(C)(C)CC2=O)Nc2n[nH]c(C)c21` (centres unmarked) [Compound 913044], the IC50 in test [1] (setting [3]) and in test [2] (setting [4]) was 100 to 1000 nM each time.

With `CC1(C)CC(=O)C2=C(C1)Nc1n[nH]cc1C21COCCOC1` [Compound 912094], the IC50 is over 5000 nM in test [1] (setting [3]) and 1000 to 5000 nM in test [2] (setting [4]).

As for `CCC1(c2cccc(C(C)C)c2)C2=C(CC(C)(C)CC2=O)Nc2n[nH]cc21` (centres unmarked) [Compound 801322], the IC50 in test [1] (setting [5]) was 100 to 1000 nM; in test [2] (setting [6]) it was at most 100 nM.

In the case of `CC[C@]1(c2cccc(-c3cnn(C)c3C(F)(F)F)c2)C2=C(CC(C)(C)NC2=O)Nc2n[nH]cc21` [Compound 948815], the IC50 is 100 to 1000 nM in test [1] (setting [5]), over 5000 nM in test [1] (setting [7]), at most 100 nM in test [2] (setting [6]) and 100 to 1000 nM in test [2] (setting [8]).

`CC1(C)CC(=O)C2=C(C1)Nc1n[nH]c(C3(C(F)(F)F)CC3)c1C21CCc2c(F)cccc21` (centres unmarked) [Compound 816839]: the IC50 in test [1] (setting [5]) was 1000 to 5000 nM; in test [2] (setting [6]), over 5000 nM.

In the case of `O=C1C[C@@H](C(F)(F)F)CC2=C1C1(CCOCC1)c1c[nH]nc1N2` [Compound 901478], the IC50 in test [1] (setting [3]) and in test [2] (setting [4]) was 100 to 1000 nM throughout.

On to `CCC1(c2cccc(S(=O)(=O)C(C)C)c2)C2=C(CC(C)(C)CC2=O)Nc2n[nH]cc21` (centres unmarked) [Compound 913135], for which the IC50 in test [1] (setting [3]) is at most 100 nM; in test [1] (setting [7]), 100 to 1000 nM; in test [2] (setting [4]), at most 100 nM; in test [2] (setting [8]) it was at most 100 nM.

For `CC[C@]1(c2cccc(C(F)(F)F)c2)C2=C(CCN(c3cscn3)C2=O)Nc2n[nH]cc21` [Compound 952638], the IC50 in test [1] (setting [3]) and in test [2] (setting [4]) was over 5000 nM each time.

As for `CC1(C)CC(=O)C2=C(C1)Nc1n[nH]cc1C21CCN(S(=O)(=O)c2cccc3ncccc23)CC1` [Compound 947469], the IC50 in test [1] (setting [9]) and in test [2] (setting [10]) was at most 100 nM throughout.

For the compound `CCC1(c2cccc(C(F)(F)F)c2)C2=C(CN(C)C2=O)Nc2n[nH]cc21` (centres unmarked) [Compound 945367], the results for the IC50 in test [1] (setting [11]) and in test [2] (setting [12]) were 1000 to 5000 nM and 100 to 1000 nM, respectively.

Regarding `CC[C@@]1(c2cccc(C(F)(F)F)c2)C2=C(CC3(CCCC3)CC2=O)Nc2n[nH]cc21` [Compound 801311], the IC50 in test [1] (setting [5]) is at most 100 nM; in test [1] (setting [7]), 100 to 1000 nM; in test [2] (setting [6]), at most 100 nM; in test [2] (setting [8]), at most 100 nM.

With `CCC1(c2cccc(OC)c2)C2=C(CC(C)(C)CC2=O)Nc2n[nH]c(C(=O)OC)c21` (centres unmarked) [Compound 901480], the values for the IC50 in test [1] (setting [3]) and in test [2] (setting [4]) were 100 to 1000 nM and at most 100 nM, respectively.

With `CCC1(c2cccc(-c3ccncc3)c2)C2=C(Nc3n[nH]cc31)C(F)C(C)(C)CC2=O` (centres unmarked) [Compound 959342], the IC50 is over 5000 nM in test [1] (setting [9]) and 1000 to 5000 nM in test [2] (setting [10]).

As for `CC1(C)CC(=O)C2=C(C1)Nc1n[nH]cc1C21CCC1` [Compound 874509], the IC50 in test [1] (setting [9]) and in test [2] (setting [10]) was 100 to 1000 nM throughout.

For `CC1(C)CC(=O)C2=C(C1)Nc1n[nH]cc1C21CCC(C(=O)N2CCCC2)CC1` (centres unmarked) [Compound 945394], the figures for the IC50 in test [1] (setting [9]) and in test [2] (setting [10]) were 1000 to 5000 nM and 100 to 1000 nM, respectively.

On to `CC[C@]1(c2cccc(C(F)(F)F)c2)C2=C(C[C@H](c3ccccc3)NC2=O)Nc2n[nH]cc21` [Compound 945364], for which the IC50 in test [1] (setting [11]) and in test [2] (setting [12]) was over 5000 nM throughout.

In the case of `CC1(C)CC(=O)C2=C(C1)Nc1n[nH]cc1C21CN(S(=O)(=O)c2cccnc2)C1` [Compound 913265], the IC50 in test [1] (setting [3]) and in test [2] (setting [4]) was over 5000 nM each time.

With `CC1(C)CC(=O)C2=C(C1)Nc1n[nH]cc1[C@@]21CCO[C@H](C(F)(F)F)C1` [Compound 884022], the IC50 in test [1] (setting [9]) and in test [2] (setting [10]) was 100 to 1000 nM each time.

Take `CCC1(CCc2ccccc2)C2=C(CC(C)(C)CC2=O)Nc2n[nH]cc21` (centres unmarked) [Compound 819563]: the IC50 was over 5000 nM in test [1] (setting [3]) and 1000 to 5000 nM in test [2] (setting [4]).

As for `CCC1(CC)C2=C(CC(C)(C)CC2=O)Nc2n[nH]c(C)c21` [Compound 786061], the IC50 was over 1670 nM in test [1] (setting [9]) and 100 to 1000 nM in test [2] (setting [10]).

Take `COC(=O)C1CCC2(CC1)C1=C(CC(C)(C)CC1=O)Nc1n[nH]cc12` (centres unmarked) [Compound 918277]: the IC50 in test [1] (setting [9]) is 100 to 1000 nM; in test [2] (setting [10]), at most 100 nM.

Regarding `CC1(C)CC(=O)C2=C(Nc3n[nH]cc3C23CCN(S(=O)(=O)C2CC2)CC3)C1F` (centres unmarked) [Compound 950814], the IC50 in test [1] (setting [9]) and in test [2] (setting [10]) was at most 100 nM each time.

Turning to `CC1(C)CC(=O)C2=C(C1)Nc1n[nH]cc1[C@@]21CCN(S(=O)(=O)c2cccc(F)c2)C1` [Compound 951862], the IC50 in test [1] (setting [9]) and in test [2] (setting [10]) was at most 100 nM each time.

Take `CC[C@@]1(c2cccc(-c3ccnc4c(F)cccc34)c2)C2=C(CC(C)(C)NC2=O)Nc2n[nH]cc21` [Compound 948813]: the IC50 was over 5000 nM in test [1] (setting [5]) and 1000 to 5000 nM in test [2] (setting [6]).

As for `CC[C@]1(c2cccc(-c3ccncc3C)c2)C2=C(CC3(CCC3)NC2=O)Nc2n[nH]cc21` [Compound 948512], the IC50 in test [1] (setting [5]) was at most 100 nM; in test [1] (setting [7]), 1000 to 5000 nM; in test [2] (setting [6]), at most 100 nM; in test [2] (setting [8]) it was 100 to 1000 nM.

Take `CC[C@@]1(c2cccc(-c3ccnc(N(C)C)c3)c2)C2=C(CC(C)(C)CC2=O)Nc2n[nH]c(C)c21` [Compound 913021]: the IC50 in test [1] (setting [3]) and in test [2] (setting [4]) was at most 100 nM each time.

On to `CC(C)(C)CC(=O)N1CC2(C1)CC1(CO2)C2=C(CC(C)(C)CC2=O)Nc2n[nH]cc21` (centres unmarked) [Compound 947301], for which the values for the IC50 in test [1] (setting [11]) and in test [2] (setting [12]) were 1000 to 5000 nM and 100 to 1000 nM, respectively.

Regarding `CCC1(c2cccc(S(=O)(=O)CC3CC3)c2)C2=C(CC(C)(C)NC2=O)Nc2n[nH]c(C(F)(F)F)c21` (centres unmarked) [Compound 948179], the IC50 in test [1] (setting [5]) and in test [2] (setting [6]) was at most 100 nM each time.

On to `CCC1(c2cccc(N3CCOCC3)c2)C2=C(CC(C)(C)NC2=O)Nc2n[nH]c(C(F)(F)F)c21` (centres unmarked) [Compound 947863], for which the IC50 in test [1] (setting [5]) and in test [2] (setting [6]) was at most 100 nM in each case.

Take `CC1(C)CC(=O)C2=C(C1)Nc1n[nH]cc1[C@]21CCOC2(CCCC2)C1` [Compound 907327]: the IC50 lay in the range of 1000 to 5000 nM in test [1] (setting [11]) and 100 to 1000 nM in test [2] (setting [12]).

Take `CC1(C)CC(=O)C2=C(C1)Nc1n[nH]cc1C21COC2(CN(C(=O)C3CC3(F)F)C2)C1` (centres unmarked) [Compound 947272]: the IC50 in test [1] (setting [11]) and in test [2] (setting [12]) was at most 100 nM each time.

As for `CC[C@@]1(c2cccc(N3CCCCC3)c2)C2=C(CC(C)(C)CC2=O)Nc2n[nH]cc21` [Compound 810371], the IC50 in test [1] (setting [5]) and in test [2] (setting [6]) was over 5000 nM in each case.

Regarding `CC[C@]1(c2cccc(C(F)(F)F)c2)C2=C(CCN(c3cc(C)n(C)n3)C2=O)Nc2n[nH]cc21` [Compound 951954], the IC50 in test [1] (setting [3]) and in test [2] (setting [4]) was over 5000 nM throughout.

In the case of `CCC1(c2cccc(-c3cn(C)nc3C)c2)C2=C(Nc3n[nH]cc31)C(F)C(C)(C)CC2=O` (single isomer, unassigned) [Compound 947652, 4-(3-(1,3-dimethyl-1H-pyrazol-4-yl)phenyl)-4-ethyl-8-fluoro-7,7-dimethyl-2,4,6,7,8,9-hexahydro-5H-pyrazolo[3,4-b]quinolin-5-one], the IC50 is 100 to 1000 nM in test [1] (setting [9]); over 5000 nM in test [1] (GSK3-B (TR-FRET 1 mM ATP), GMean, IC50, 1 mM ATP, geometric mean); at most 100 nM in test [2] (setting [10]); 100 to 1000 nM in test [2] (GSK3-A (TR-FRET 1 mM ATP), GMean, IC50, 1 mM ATP, geometric mean).

With `CCC1(c2cccc(-c3cnn(C)c3)c2)C2=C(CC(C)(C)CC2=O)Nc2n[nH]c(C(F)(F)F)c21` (centres unmarked) [Compound 811567], the IC50 in test [1] (setting [5]) and in test [2] (setting [6]) was 100 to 1000 nM throughout.
